Laboratory results from EP0549006A2, “Ammonium and phosphonium salts and their use as biocides” (FMC CORPORATION (UK) LIMITED, priority 1991, dated 1993).

What was measured:
Enterobacter aerogenes = assay: Bacterial minimal inhibiting concentration (MIC) in liquid culture, turbidity evaluation; format: cell-based; settings: strain C: Enterobacter aerogenes, Caso Peptone Bouillon, 24 hours at 30 °C, tested at 10, 30, 60 and 100 mg/l
Alcaligenes dentrificans = assay: as above; format: cell-based; settings: strain D: Alcaligenes dentrificans; Caso Peptone Bouillon, 24 hours at 30 °C; tested at 10, 30, 60 and 100 mg/l
Bacillus subtilis = assay: as above; format: cell-based; settings: strain A: Bacillus subtilis; Caso Peptone Bouillon, 24 hours at 30 °C; tested at 10, 30, 60 and 100 mg/l
Proteus vulgaris = assay: as above; format: cell-based; settings: strain E: Proteus vulgaris; Caso Peptone Bouillon, 24 hours at 30 °C; tested at 10, 30, 60 and 100 mg/l
Serratia marcescens = assay: as above; format: cell-based; settings: strain B: Serratia marcescens; Caso Peptone Bouillon, 24 hours at 30 °C; tested at 10, 30, 60 and 100 mg/l
bacterial mixed culture = format: cell-based; settings: 24 hours at 30 °C in Tyrode solution, growth on Caso Peptone plates; for Effect after 24 h 10: 10 mg/l; for Effect after 24 h 30: 30 mg/l; for Effect after 24 h 60: 60 mg/l
Pseudomonas fluorescens = assay: Bacterial minimal inhibiting concentration (MIC) in liquid culture, turbidity evaluation; format: cell-based; settings: strain F: Pseudomonas fluorescens; Caso Peptone Bouillon, 24 hours at 30 °C; tested at 10, 30, 60 and 100 mg/l
[1] = Solubility of the isolated product (water, alcohol); format: physicochemical

Compound	minimal inhibiting concentration C (Enterobacter aerogenes)	minimal inhibiting concentration D (Alcaligenes dentrificans)	minimal inhibiting concentration A (Bacillus subtilis)	minimal inhibiting concentration E (Proteus vulgaris)	minimal inhibiting concentration B (Serratia marcescens)	Effect after 24 h 10 (bacterial mixed culture)	Effect after 24 h 30 (bacterial mixed culture)	Effect after 24 h 60 (bacterial mixed culture)	minimal inhibiting concentration F (Pseudomonas fluorescens)	solubility ([1]; in water)	Effect after 24 h 100 mg/l (bacterial mixed culture)	solubility in alcohol ([1]; alcohol)	solubility in water [1]	MIC (Alcaligenes dentrificans)	MIC (Bacillus subtilis)	MIC (Proteus vulgaris)	MIC (Serratia marcescens)	MIC (Pseudomonas fluorescens)	MIC (Enterobacter aerogenes; Klebsiella aerogenes, 24 h)
[(n-C4H9)3P n-C14H29]^+(ICIBr]^- [Example 9]	30 mg/L	10 mg/L	10 mg/L	10 mg/L	30 mg/L	-	-	-	30 mg/L										
CCCCCCCCCCCCCC[P+](CCCC)(CCCC)CCCC [Example 6, ([n-C4H9)3P n-C14H29]^+[B(C6H5)4]^-]										≤ 20 µg/mL									
[(n-C4H9)3P n-G14H29]^+SCN^- [Example 1]	10 mg/L	10 mg/L	10 mg/L	10 mg/L	30 mg/L	-	-	-	30 mg/L		-								
CCCCCCCCCCCCCC[P+](CCCC)(CCCC)CCCC [Example 3, [(n-C4H9)3P n-C14H29]^+NO3^-]	10 mg/L	10 mg/L	10 mg/L	10 mg/L	30 mg/L	(-) (1-10 colonies, bacteria killed for the most part)	(-) (1-10 colonies, bacteria killed for the most part)	-	30 mg/L		-	readily soluble in alcohol	difficultly soluble in water						
CCCCCCCCCCCCCC[P+](CCCC)(CCCC)CCCC [Example 7, [(n-C4H9)3P n-C14H29]^+[lO4]^-]	30 mg/L	10 mg/L	10 mg/L	10 mg/L	30 mg/L	(-) (1-10 colonies, bacteria killed for the most part)	-	-	30 mg/L		-		difficultly soluble in water						
[(CH3)2N(CH2C6H5) n-C14H29]3^+[Fe(CN)6]^3- [Example 4]	<100 mg/L	<100 mg/L	<100 mg/L	<100 mg/L	<100 mg/L				<100 mg/L										
[(n-C4H9)3P n-C, 4H29]^+[ICI2]^- [Example 8]	30 mg/L	10 mg/L	10 mg/L	10 mg/L	30 mg/L	-	-	-	30 mg/L										
CCCCCCCCCCCCCC[P+](CCCC)(CCCC)CCCC [Example 2, [(n-C4H9)3P n-C14H29]^+HSO4-]	10 mg/L					-	-	-					optionally miscible with water	10 µg/mL	10 µg/mL	10 µg/mL	30 µg/mL	30 µg/mL	
CCCCCCCCCCCCCC[N+](C)(C)Cc1ccccc1 [Example 5, [(CH3)2N(CH2C6H5)n-C14H29]^+[S2P(O^iC3H7)2]^-]							(-) (1-10 colonies, bacteria killed for the most part)	-			-		difficultly soluble in water	< 100 µg/mL	< 100 µg/mL	< 100 µg/mL	< 100 µg/mL	< 100 µg/mL	< 100 µg/mL
